Test results published in patent US20110098314A1, “STATINS FOR THE TREATMENT OF OCULAR HYPERTENSION AND GLAUCOMA” (ALCON, INC., priority 2005, published 2011).

How the values were obtained:
intraocular pressure [1] = test: Acute IOP response in lasered (hypertensive) eyes of conscious cynomolgus monkeys; type: in vivo, cynomolgus monkey; conditions: single topical ocular application of 300 μg; IOP at 1, 3 and 6 hours
Description: Acute IOP Response in Lasered (Hypertensive) Eyes of Conscious Cynomolgus Monkeys.
Intraocular pressure (IOP) was determined with an Alcon Pneumatonometer after light corneal anesthesia with 0.1% proparacaine. Eyes were washed with saline after each measurement. After a baseline IOP measurement, the test compound was instilled in one 30 μL aliquot to the right eyes only of nine cynomolgus monkeys. The vehicle was instilled in the right eyes of six additional animals. Subsequent IOP measurements were taken at 1, 3, and 6 hours.

[2] = Penetration of the cornea following topical ocular administration; type: in vivo
Description: The use of topical ocular administration is therefore strongly preferred in the present invention.

[3] = tested on: CTGF gene expression in cultured human trabecular meshwork (TM) cells; test: Inhibition of TGFβ2 stimulated CTGF gene expression (QPCR, CTGF/18S cDNA); type: cell-based
Description: FIGS. 1-3 are graphs setting forth the effects of statins on basal and TGFβ2-induced CTGF gene expression in cultured human trabecular meshwork cells.
The effectiveness of statins on CTGF gene expression in cultured human trabecular meshwork (TM) cells was studied. In these experiments, the CTGF/18S cDNA levels were measured by quantitative reverse-transcription PCR (QPCR) and compared.

intraocular pressure [4] = conditions: administered orally for at least one year; cited from earlier work
GTM-3 cells = test: GTM-3 cell viability (neutral red uptake); type: cell-based, human; conditions: 24 h, FIG. 5
Description: (§1) FIG. 5 depicts bar graphs showing the effect of lovastatin on GTM-3 cell fibronectin secretion and viability. Transformed human trabecular meshwork (GTM-3) cells were incubated in the presence or absence of test agents in serum-free DMEM media for 24 h (37° C., 5% CO2). Cell supernatants were then assayed for fibronectin content by ELISA and cell monolayers were assayed for viability by neutral red uptake.
(§2) The effect of lovastatin on both basal (vehicle) and stimulated (TGF32) GTM-3 (a transformed human TM cell strain) secretion of fibronectin was tested. GTM-3 cells were incubated in the presence or absence of test agents in serum-free media for 24 h (37° C., 5% CO2), then changes in secreted fibronectin levels were determined by ELISA of cell supernatants. Neutral red uptake assays were performed on the remaining cell monolayers, in order to determine the effect of test agents on GTM-3 cell viability. […] Thus, by virtue of the ability to reduce the excessive accumulation of extracellular matrix (e.g. fibronectin), statins are useful in the treatment of glaucoma and to control or lower IOP.

[5] = tested on: fibronectin secretion by GTM-3 cells; test: Inhibition of TM fibronectin secretion (ELISA of cell supernatants); type: cell-based, human; conditions: 24 h, FIG. 5
Description: as §1, §2

intraocular pressure [6] = test: IOP response in lasered (hypertensive) eyes of conscious cynomolgus monkeys following repeated dosing; type: in vivo, cynomolgus monkey
Description: Response in Lasered (Hypertensive) Eyes of Conscious Cynomolgus Monkeys Following Repeated Dosing.
In a further study, the intraocular pressure-lowering efficacy of lovastatin was measured in conscious ocular hypertensive monkeys using a five-dose, three-day study design. The test item was administered in one 30 μL aliquot to the lasered (unilateral laser trabeculoplasty) eye of eight animals. The vehicle was instilled in the lasered eyes of six additional animals as a control. Doses 1, 3, and 5 were instilled at 0900 hours on three consecutive days; doses 2 and 4 at 1630 hours on days 1 and 2. IOP was measured at 1, 3 and 6 hours after doses 1 and 5. IOP was also measured at 16 hours after dose 4. The percent change from time 0 baseline was determined for each animal for every IOP measurement.
There was an average reduction in IOP of 12.5% in the control group. In a subsequent study, wherein nine doses of lovastatin were administered over a five day period, IOP was reduced by up to 7.4%.

[7] = 1 hour after fifth topical ocular instillation of 300 μg
[8] = 3 hours after fifth topical ocular instillation of 300 μg
[9] = 6 hours after fifth topical ocular instillation of 300 μg

Row | Compound | IOP lowering after single topical ocular application (intraocular pressure [1]) | ability to reach intraocular tissues via penetration of the cornea [2] | CTGF gene expression by cultured human TM cells [3] | change in intraocular pressure in patients (intraocular pressure [4]) | further results
1 | CC[C@H](C)C(=O)O[C@H]1C[C@H](O)C=C2C=C[C@H](C)[C@H](CC[C@@H](O)CC(O)CC(=O)O)[C@H]21 (stereo in doubt) [pravastatin, (βR,δR,1S,2S,6S,8S,8aR)-1,2,6,7,8,8a-hexahydro-β,δ,6-trihydroxy-2-methyl-8-[(2S)-2-methyl-1-oxobutoxy]-1-naphthaleneheptanoic acid] | did not significantly lower IOP | able to reach intraocular tissues via penetration of the cornea | – | – | –
2 | CC[C@H](C)C(=O)O[C@H]1CCC=C2C=C[C@H](C)[C@H](CC[C@@H]3C[C@@H](O)CC(=O)O3)[C@H]21 [mevastatin, (2S)-2-methyl butanoic acid (1S,7S,8S,8aR)-1,2,3,7,8,8a-hexahydro-7-methyl-8-[2-[(2R,4R)-tetrahydro-4-hydroxy-6-oxo-2H-pyran-2-yl]ethyl]-1-naphthalenyl ester] | – | – | significantly reduce | – | –
3 | CC(C)c1c(C(=O)Nc2ccccc2)c(-c2ccccc2)c(-c2ccc(F)cc2)n1CC[C@@H](O)C[C@@H](O)CC(=O)O (relative stereo) [atorvastatin, (βR,δR)-2-(4-fluorophenyl)-β,δ-dihydroxy-5-(1-methylethyl)-3-phenyl-4-[(phenylamino)carbonyl]-1H-Pyrrole-1-heptanoic acid] | did not significantly lower IOP | do not readily penetrate the cornea | – | – | –
4 | CCC(C)(C)C(=O)O[C@H]1C[C@@H](C)C=C2C=C[C@H](C)[C@H](CC[C@@H]3C[C@@H](O)CC(=O)O3)[C@H]21 [simvastatin, 2,2-dimethyl-butanoic acid (1S,3R,7S,8S,8aR)-1,2,3,7,8,8a-hexahydro-3,7-dimethyl-8-[2-[(2R,4R)-tetrahydro-4-hydroxy-6-oxo-2H-pyran-2-yl]ethyl]-1-naphthalenyl ester] | – | – | significantly reduce | no clinically significant change in intraocular pressure | –
5 | CC[C@H](C)C(=O)O[C@H]1C[C@@H](C)C=C2C=C[C@H](C)[C@H](CC[C@@H]3C[C@@H](O)CC(=O)O3)[C@H]21 [lovastatin, 2(S)-2-methyl-butanoic acid (1S,3R,7S,8S,8aR)-1,2,3,7,8,8a-hexahydro-3,7-dimethyl-8-[2-[(2R,4R)-tetrahydro-4-hydroxy-6-oxo-2H-pyran-2-yl]ethyl]-1-naphthalenyl ester] | did not significantly lower IOP | – | significantly reduce | no clinically significant change in intraocular pressure | GTM-3 cell viability (GTM-3 cells): without affecting cell viability; TGFβ2-stimulated fibronectin secretion ([5]; serum-free media): suppressed; basal fibronectin secretion ([5]; vehicle (basal)): suppression; IC50 ([3]; dose-dependent, FIG. 3): 75 nM; average IOP lowering (intraocular pressure [6]; [7]): 8.3 mmHg; average IOP lowering, percent change from baseline (intraocular pressure [6]; [7]): 22.8%; average IOP lowering (intraocular pressure [6]; [8]): 8.1 mmHg; average IOP lowering, percent change from baseline (intraocular pressure [6]; [8]): 21.5%; average IOP lowering (intraocular pressure [6]; [9]): 9.5 mmHg; average IOP lowering, percent change from baseline (intraocular pressure [6]; [9]): 25.5%; IOP reduction (intraocular pressure [6]; subsequent study, nine doses over a five day period): up to 7.4%
6 | CC(C)n1c(/C=C/[C@@H](O)C[C@@H](O)CC(=O)O)c(-c2ccc(F)cc2)c2ccccc21 (relative stereo) [fluvastatin, (3R,5S,6E)-rel-7-[3-(4-fluorophenyl)-1-(1-methylethyl)-1H-indol-2-yl]-3,5-dihydroxy-6-heptenoic acid] | did not significantly lower IOP | – | – | – | –
